Experimental data as given in patent US9783536B2, “Nitrogen-containing heterocyclic compound or salt thereof” (FUJIFILM Corporation, priority 2013, dated 2017).
pIC50: −log10 of the molar value. Where two headings read alike, the source gives them in different places.

Legend:
[1] = biological target: T1, GST fusion human ERK2 protein (Homo sapiens, UniProt P28482); test: ERK2 enzyme assay (2); assay type: biochemical; settings: read-out: ERK2 enzyme inhibitory activity (2)
T1 construct: purchased Carna Biosciences, Inc; host or cells: E. coli expression system
How it was run: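 GST-tagged human ERK2 expressed in E. coli (1.25 nmol/L) was preincubated with compound for 15 min at room temperature in pH 7.5 Hepes buffer with MgCl2, DTT and Brij35. Reaction with FL-Peptide 8 (final 4.25 μmol/L) and ATP (final 1 mmol/L) ran 120 min at 25 °C; EDTA stopped it, and phosphorylated peptide was quantified by mobility-shift separation to derive IC50.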

human PI3Kα protein = biological target: T2, human PI3Kα protein (Homo sapiens, UniProt P42336); test: PI3Kα enzyme assay (ADP-Glo); assay type: biochemical; settings: read-out: PI3Kα enzyme inhibitory activity
T2 construct: purchased Carna Biosciences, Inc; host or cells: baculovirus expression system
How it was run: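 Biotinylated human PI3Kα (baculovirus-expressed, 4.5 nmol/L) pre-incubated 15 min with compound in Tris-HCl pH 7.5, MgCl2, BSA; reaction 60 min at 25° C with 50 μmol/L PIP2 and 100 μmol/L ATP final. ADP quantified by ADP-Glo luminescence; IC50 calculated.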

T1 sequence (P28482 whole entry, the tested form may be a part): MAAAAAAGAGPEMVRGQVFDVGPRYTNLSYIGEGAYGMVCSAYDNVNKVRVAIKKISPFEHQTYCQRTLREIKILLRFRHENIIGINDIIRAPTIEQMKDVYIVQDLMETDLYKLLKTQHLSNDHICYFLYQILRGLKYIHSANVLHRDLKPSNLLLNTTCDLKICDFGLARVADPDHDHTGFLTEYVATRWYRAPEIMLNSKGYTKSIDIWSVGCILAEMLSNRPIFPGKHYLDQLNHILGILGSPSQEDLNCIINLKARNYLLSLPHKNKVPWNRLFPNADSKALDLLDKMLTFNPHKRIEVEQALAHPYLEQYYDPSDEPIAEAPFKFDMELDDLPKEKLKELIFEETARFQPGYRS
T2 sequence (P42336 whole entry): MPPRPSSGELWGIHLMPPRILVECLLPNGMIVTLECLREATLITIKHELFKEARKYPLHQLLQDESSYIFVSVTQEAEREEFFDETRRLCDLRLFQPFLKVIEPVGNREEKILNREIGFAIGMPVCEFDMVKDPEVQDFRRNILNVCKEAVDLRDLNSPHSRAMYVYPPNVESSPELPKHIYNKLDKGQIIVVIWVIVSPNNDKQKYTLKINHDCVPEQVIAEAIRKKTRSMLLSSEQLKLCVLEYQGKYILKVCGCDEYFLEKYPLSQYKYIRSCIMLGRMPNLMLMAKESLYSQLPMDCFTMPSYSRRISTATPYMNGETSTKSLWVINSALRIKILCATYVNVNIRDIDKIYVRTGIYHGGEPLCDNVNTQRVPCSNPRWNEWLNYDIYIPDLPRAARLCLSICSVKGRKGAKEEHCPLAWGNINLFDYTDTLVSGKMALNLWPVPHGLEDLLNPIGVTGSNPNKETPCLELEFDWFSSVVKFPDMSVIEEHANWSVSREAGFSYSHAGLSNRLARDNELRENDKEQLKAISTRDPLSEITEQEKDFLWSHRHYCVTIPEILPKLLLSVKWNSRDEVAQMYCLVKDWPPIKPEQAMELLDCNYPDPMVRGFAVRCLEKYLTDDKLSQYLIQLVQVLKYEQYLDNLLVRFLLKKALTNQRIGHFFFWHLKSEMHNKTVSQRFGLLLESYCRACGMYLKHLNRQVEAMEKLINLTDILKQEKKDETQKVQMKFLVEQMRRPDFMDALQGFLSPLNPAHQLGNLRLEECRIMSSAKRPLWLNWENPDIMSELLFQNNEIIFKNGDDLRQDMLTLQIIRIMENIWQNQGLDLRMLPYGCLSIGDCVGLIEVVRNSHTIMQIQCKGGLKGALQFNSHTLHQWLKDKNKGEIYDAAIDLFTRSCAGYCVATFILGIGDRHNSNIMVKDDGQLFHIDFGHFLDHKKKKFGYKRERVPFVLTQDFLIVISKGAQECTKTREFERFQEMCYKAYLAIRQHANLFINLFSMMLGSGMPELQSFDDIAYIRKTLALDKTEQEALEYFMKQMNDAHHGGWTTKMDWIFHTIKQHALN
T2 sequence (P27986 whole entry partner): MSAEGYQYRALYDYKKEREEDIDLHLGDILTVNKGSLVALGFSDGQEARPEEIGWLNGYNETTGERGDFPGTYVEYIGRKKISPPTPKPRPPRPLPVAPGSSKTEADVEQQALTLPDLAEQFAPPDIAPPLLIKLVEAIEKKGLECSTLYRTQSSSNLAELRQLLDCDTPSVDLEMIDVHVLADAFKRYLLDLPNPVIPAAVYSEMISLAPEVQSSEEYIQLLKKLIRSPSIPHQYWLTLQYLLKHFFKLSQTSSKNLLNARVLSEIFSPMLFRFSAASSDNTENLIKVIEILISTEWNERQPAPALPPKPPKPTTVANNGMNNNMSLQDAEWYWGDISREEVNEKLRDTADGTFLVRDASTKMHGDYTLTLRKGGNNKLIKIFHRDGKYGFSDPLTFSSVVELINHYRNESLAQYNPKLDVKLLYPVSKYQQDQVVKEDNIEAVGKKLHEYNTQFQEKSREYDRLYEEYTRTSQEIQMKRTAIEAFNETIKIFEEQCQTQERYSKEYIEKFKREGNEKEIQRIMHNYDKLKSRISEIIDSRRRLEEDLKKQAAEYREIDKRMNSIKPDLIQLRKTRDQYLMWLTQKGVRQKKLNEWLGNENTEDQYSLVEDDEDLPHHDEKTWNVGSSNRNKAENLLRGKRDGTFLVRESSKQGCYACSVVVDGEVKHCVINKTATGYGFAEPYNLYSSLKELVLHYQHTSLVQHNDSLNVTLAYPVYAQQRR

| Compound | pIC50 [1] | pIC50 (human PI3Kα protein) | pIC50 ([1]; ERK2 enzyme assay (2)) |
| --- | --- | --- | --- |
| CCn1cc(-c2cnc3ccc(Nc4cc(C(C)C)cnn4)nc3c2)ccc1=O [Example 0596, 1-ethyl-5-(6-((5-isopropylpyridazin-3-yl)amino)-1,5-naphthyridin-3-yl)pyridin-2(1H)-one] |  | > 6.00 | > 6.00 |
| CC(C)c1cnnc(Nc2ccc3ncc(-c4cnn(CC(=O)N5CCCCC5)c4)cc3n2)c1 [Example 0561] |  | > 6.00 | > 6.00 |
| Cc1nn(C)c(C)c1-c1cnc2ccc(Nc3cc(C(C)C)cnn3)nc2c1 [Example 0624, N-(5-isopropylpyridazin-3-yl)-7-(1,3,5-trimethyl-1H-pyrazol-4-yl)-1,5-naphthyridine-2-amine] |  | 5.00 to 6.00 | > 6.00 |
| CC(C)c1cnnc(Nc2ccc3ncc(-c4cnn(CC5CCN(C(=O)N6CCCC6)CC5)c4)cc3n2)c1 [Example 0539] |  | > 6.00 | > 6.00 |
| Cn1cc(-c2cnc3ccc(Nc4cc(C5CC5)cnn4)nc3c2)cn1 [Example 0564] |  | > 6.00 | > 6.00 |
| CC(C)c1cnnc(Nc2ccc3ncc(-c4ncccn4)cc3n2)c1 [Example 0605] |  | > 6.00 | > 6.00 |
| CC(C)c1cnnc(Nc2ccc3ncc(-c4cnn(C5CC5)c4)cc3n2)c1 [Example 0563, 7-(1-Cyclopropyl-1H-pyrazol-4-yl)-N-(5-isopropylpyridazin-3-yl)-1,5-naphthyridine-2-amine] |  | > 6.00 | > 6.00 |
| CC(C)c1cnnc(Nc2ccc3ncc(-c4cnn(CCN5CC6(COC6)C5)c4)cc3n2)c1 [Example 0619, 7-(1-(2-(2-Oxa-6-azaspiro[3.3]heptan-6-yl)ethyl)-1H-pyrazol-4-yl)-N-(5-isopropylpyridazin-3-yl)-1,5-naphthyridine-2-amine] |  | > 6.00 | > 6.00 |
| CC(C)c1cnnc(Nc2ccc3ncc(-c4cnn(CCCN5CC[C@H](F)C5)c4)cc3n2)c1 [Example 0428] |  | > 6.00 | > 6.00 |
| CC(C)c1cnnc(Nc2ccc3ncc(N(C)C)cc3n2)c1 [Example 0627, N^2-(5-isopropylpyridazin-3-yl)-N^7,N^7-dimethyl-1,5-naphthyridine-2,7-diamine] |  | 5.00 to 6.00 | > 6.00 |
| CC(=O)Nc1cc(-c2cnc3ccc(Nc4cc(C(C)C)cnn4)nc3c2)ccn1 [Example 0421, N-(4-(6-((5-isopropylpyridazin-3-yl)amino)-1,5-naphthyridin-3-yl)pyridin-2-yl)acetamide] |  | > 6.00 | > 6.00 |
| CC(C)c1cnnc(Nc2ccc3ncc(-c4cnn(CCN5C[C@H](C)O[C@@H](C)C5)c4)cc3n2)c1 [Example 0616, 7-(1-(2-((2S,6S)-2,6-dimethylmorpholino)ethyl)-1H-pyrazol-4-yl)-N-(5-isopropylpyridazin-3-yl)-1,5-naphthyridine-2-amine] |  | > 6.00 | > 6.00 |
| CC(C)c1cnnc(Nc2ccc3ncc(-c4cnn(CCCN5CC(C(=O)O)C5)c4)cc3n2)c1 [Example 0666] |  | > 6.00 | > 6.00 |
| CC(C)c1cnnc(Nc2ccc3ncc(-c4cnn(CC5CCN(C(=O)C6CCCCC6)CC5)c4)cc3n2)c1 [Example 0538] |  | > 6.00 | > 6.00 |
| Cc1n[nH]c(C)c1-c1cnc2ccc(Nc3cc(C(C)C)cnn3)nc2c1 [Example 0621] |  | 5.00 to 6.00 | > 6.00 |
| CC(C)c1cnnc(Nc2ccc3ncc(-c4cnn(C[C@H]5CCC(=O)N5)c4)cc3n2)c1 [Example 0566] |  | > 6.00 | > 6.00 |
| Cn1cc(-c2cnc3ccc(Nc4cc(C(C)(C)CO[Si](C)(C)C(C)(C)C)cnn4)nc3c2)cn1 [Example 0559, N-(5-(1-((tert-butyldimethylsilyl)oxy)-2-methylpropan-2-yl)pyridazin-3-yl)-7-(1-methyl-1H-pyrazol-4-yl)-1,5-naphthyridine-2-amine] |  | 4.30 to 5.00 | > 6.00 |
| Cn1cc(-c2cnc3ccc(Nc4cc(N5CCOCC5)cnn4)nc3c2)cn1 [Example 0554, 7-(1-methyl-1H-pyrazol-4-yl)-N-(5-morpholinopyridazin-3-yl)-1,5-naphthyridine-2-amine] |  | > 6.00 | > 6.00 |
| Cn1cc(-c2cnc3ccc(Nc4cc(CC5CCCCC5)cnn4)nc3c2)cn1 [Example 0586] |  | > 6.00 | > 6.00 |
| CCCn1cc(-c2cnc3ccc(Nc4cc(C(C)C)cnn4)nc3c2)cn1 [Example 0441] |  | > 6.00 | > 6.00 |

Other lines, results leading:

| pIC50 [1] | pIC50 (human PI3Kα protein) | pIC50 ([1]; ERK2 enzyme assay (2)) | Compound |
| --- | --- | --- | --- |
| > 6.00 | > 6.00 |  | CCOC(C)c1cnnc(Nc2ccc3ncc(-c4cn(C)nc4C)cc3n2)c1 (centres unmarked) [Example 0921] |
| > 6.00 | 5.00 to 6.00 |  | CC(C)c1cnnc(Nc2ccc3ncc(N4C5CCC4COC5)cc3n2)c1 [Example 0901] |
|  | > 6.00 | > 6.00 | COCCOC1CN(CCCn2cc(-c3cnc4ccc(Nc5cc(C(C)C)cnn5)nc4c3)cn2)C1 [Example 0718, N-(5-isopropylpyridazin-3-yl)-7-(1-(3-(3-(2-methoxyethoxy)azetidin-1-yl)propyl)-1H-pyrazol-4-yl)-1,5-naphthyridine-2-amine] |
| > 6.00 | > 6.00 |  | CN(C)S(=O)(=O)Cc1cnnc(Nc2ccc3ncc(-c4cnn(C)c4)cc3n2)c1 [Example 0924] |
|  | > 6.00 | > 6.00 | CC(C)c1cnnc(Nc2ccc3ncc(-c4cnn(CCCN(C)CC(N)=O)c4)cc3n2)c1 [Example 0671] |
|  | > 6.00 | > 6.00 | CCC(CC)c1cnnc(Nc2ccc3ncc(-c4cn(C)nc4-c4ccncc4)cc3n2)c1 [Example 0770] |
| > 6.00 | > 6.00 |  | Cn1cc(-c2cnc3ccc(Nc4cc(C5CCCCC5)cnn4)nc3c2)cn1 [Example 0927, N-(5-cyclohexylpyridazin-3-yl)-7-(1-methyl-1H-pyrazol-4-yl)-1,5-naphthyridine-2-amine] |
|  | 5.00 to 6.00 | > 6.00 | CC(C)c1cnnc(Nc2ccc3ncc(-c4cc(-c5ccccn5)nn4C)cc3n2)c1 [Example 0837, N-(5-isopropylpyridazin-3-yl)-7-(1-methyl-3-(pyridin-2-yl)-1H-pyrazol-5-yl)-1,5-naphthyridine-2-amine] |
|  | > 6.00 | > 6.00 | CC1CN(CCCn2cc(-c3cnc4ccc(Nc5cc(C(C)C)cnn5)nc4c3)cn2)C(C)CO1 (centres unmarked) [Example 0674] |
|  | > 6.00 | 5.00 to 6.00 | CC(C)c1cnnc(Nc2ccc3ncc(N4CCC(S(N)(=O)=O)C4)cc3n2)c1 (centres unmarked) [Example 0900] |
| > 6.00 | > 6.00 |  | CC(C)c1cnnc(Nc2ccc3ncc(-c4cnn(C)c4)c(Cl)c3n2)c1 [Example 0952, 8-Chloro-N-(5-isopropylpyridazin-3-yl)-7-(1-methyl-1H-pyrazol-4-yl)-1,5-naphthyridine-2-amine] |
|  | 5.00 to 6.00 | 5.00 to 6.00 | CCCCOC1CN(c2cnc3ccc(Nc4cc(C(C)C)cnn4)nc3c2)C1 [Example 0870] |
|  | > 6.00 | > 6.00 | Cc1ccc(-c2nn(C)cc2-c2cnc3ccc(Nc4cc(C(C)C)cnn4)nc3c2)cn1 [Example 0734] |
|  | > 6.00 | > 6.00 | Cc1nn(CCCO)cc1-c1cnc2ccc(Nc3cc(C(C)C)cnn3)nc2c1 [Example 0800, 3-(4-(6-((5-Isopropylpyridazin-3-yl)amino)-1,5-naphthyridin-3-yl)-3-methyl-1H-pyrazol-1-yl)propan-1-ol] |
|  | > 6.00 | > 6.00 | CC(C)c1cnnc(Nc2ccc3ncc(-c4cnn(CCCN5CC(NC(=O)C(F)(F)F)C5)c4)cc3n2)c1 [Example 0696] |
|  | > 6.00 | > 6.00 | CC(C)c1cnnc(Nc2ccc3ncc(-c4cnn(/C=C(\F)CN5CCCC5)c4)cc3n2)c1 [Example 0726, (Z)-7-(1-(2-fluoro-3-(pyrrolidin-1-yl)-1-propen-1-yl)-1H-pyrazol-4-yl)-N-(5-isopropylpyridazin-3-yl)-1,5-naphthyridine-2-amine] |
|  | > 6.00 | > 6.00 | CCOC(CN1CCOCC1)Cn1cc(-c2cnc3ccc(Nc4cc(C(C)C)cnn4)nc3c2)cn1 (centres unmarked) [Example 0811] |
|  | 5.00 to 6.00 | > 6.00 | CC(C)c1cnnc(Nc2ccc3ncc(C4=CCNCC4)cc3n2)c1 [Example 0881, N-(5-isopropylpyridazin-3-yl)-7-(1,2,3,6-tetrahydropyridin-4-yl)-1,5-naphthyridine-2-amine] |
|  | > 6.00 | 5.00 to 6.00 | CC(C)c1cnnc(Nc2ccc3ncc(-c4cn(C)nc4NCc4cnn(C)c4)cc3n2)c1 [Example 0836] |
|  | > 6.00 | > 6.00 | CC(C)c1cnnc(Nc2ccc3ncc(-c4cnn(CCCN(C)CC(F)(F)F)c4)cc3n2)c1 [Example 0700, N-(5-isopropylpyridazin-3-yl)-7-(1-(3-(methyl (2,2,2-trifluoroethyl)amino)propyl)-1H-pyrazol-4-yl)-1,5-naphthyridine-2-amine] |
|  | > 6.00 | > 6.00 | CC(C)c1cnnc(Nc2ccc3ncc(-c4cnn(CCCN5CCC(C(F)(F)F)CC5)c4)cc3n2)c1 [Example 0673] |
|  | > 6.00 | > 6.00 | C=C(C)c1cnnc(Nc2ccc3ncc(-c4cnn(C)c4)cc3n2)c1 [Example 0787, 7-(1-Methyl-1H-pyrazol-4-yl)-N-(5-(prop-1-en-2-yl)pyridazin-3-yl)-1,5-naphthyridine-2-amine] |
|  | > 6.00 | > 6.00 | CC(C)c1cnnc(Nc2ccc3ncc(-c4cnn(CCCN5CC(Oc6ccccc6)C5)c4)cc3n2)c1 [Example 0715, N-(5-isopropylpyridazin-3-yl)-7-(1-(3-(3-phenoxyazetidin-1-yl)propyl)-1H-pyrazol-4-yl)-1,5-naphthyridine-2-amine] |
